The source made the active and inactive calls.
How the values were obtained:
Type in all cases: functional
[1] = biological target: Ribosomal protein S6 kinase alpha-3 (Homo sapiens, UniProt P51812);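 note: measured within a kinome-wide profiling panel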
[2] = biological target: Dual specificity mitogen-activated protein kinase kinase 1 (Homo sapiens, UniProt Q02750); experiment: Navigating the Kinome. Panel member name: MAP2K1
[3] = biological target: Proto-oncogene tyrosine-protein kinase receptor Ret (Homo sapiens, UniProt P07949);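 note: measured within a kinome-wide profiling panel, RET as the panel member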
[4] = biological target: T1, Tyrosine-protein kinase receptor TYRO3 (Homo sapiens, UniProt Q06418);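 note: TYRO3 value obtained as one member of a kinome-wide profiling panel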
T1 sequence (Q06418 whole entry): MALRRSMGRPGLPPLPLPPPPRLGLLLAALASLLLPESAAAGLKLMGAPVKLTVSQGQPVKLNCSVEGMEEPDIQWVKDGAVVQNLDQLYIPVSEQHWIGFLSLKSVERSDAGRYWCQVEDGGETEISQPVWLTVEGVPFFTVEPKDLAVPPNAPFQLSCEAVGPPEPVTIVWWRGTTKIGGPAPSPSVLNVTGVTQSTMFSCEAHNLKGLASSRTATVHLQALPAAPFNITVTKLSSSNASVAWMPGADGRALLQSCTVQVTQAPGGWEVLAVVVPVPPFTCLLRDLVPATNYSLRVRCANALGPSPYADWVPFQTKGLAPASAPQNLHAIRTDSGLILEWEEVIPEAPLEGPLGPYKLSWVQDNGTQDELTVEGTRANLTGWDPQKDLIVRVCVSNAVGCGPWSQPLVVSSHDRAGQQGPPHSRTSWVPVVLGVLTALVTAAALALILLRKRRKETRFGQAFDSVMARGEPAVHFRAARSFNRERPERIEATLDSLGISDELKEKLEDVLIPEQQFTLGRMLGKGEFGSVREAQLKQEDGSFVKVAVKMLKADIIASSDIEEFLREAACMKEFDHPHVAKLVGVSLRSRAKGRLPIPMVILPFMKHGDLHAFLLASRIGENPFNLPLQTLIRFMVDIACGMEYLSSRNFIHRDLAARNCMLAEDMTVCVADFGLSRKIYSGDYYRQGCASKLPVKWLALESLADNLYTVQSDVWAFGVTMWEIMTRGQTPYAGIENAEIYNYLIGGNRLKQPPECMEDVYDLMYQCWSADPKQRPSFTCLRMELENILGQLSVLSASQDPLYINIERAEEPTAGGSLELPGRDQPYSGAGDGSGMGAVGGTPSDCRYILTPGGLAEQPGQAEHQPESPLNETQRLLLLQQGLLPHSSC

[5] = biological target: Death-associated protein kinase 3 (Homo sapiens, UniProt O43293);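 note: measured as one member of a kinome-wide profiling panel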
[6] = biological target: Mitogen-activated protein kinase 8 (Homo sapiens, UniProt P45983);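 note: value comes from one member of a kinome-wide kinase profiling panel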
[7] = biological target: Serine/threonine-protein kinase pim-1 (Homo sapiens, UniProt P11309)
[8] = biological target: T2, Aurora kinase A (Homo sapiens, UniProt O14965);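 note: value from the Navigating the Kinome kinase panel profiling, panel entry STK6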
T2 sequence (O14965 whole entry): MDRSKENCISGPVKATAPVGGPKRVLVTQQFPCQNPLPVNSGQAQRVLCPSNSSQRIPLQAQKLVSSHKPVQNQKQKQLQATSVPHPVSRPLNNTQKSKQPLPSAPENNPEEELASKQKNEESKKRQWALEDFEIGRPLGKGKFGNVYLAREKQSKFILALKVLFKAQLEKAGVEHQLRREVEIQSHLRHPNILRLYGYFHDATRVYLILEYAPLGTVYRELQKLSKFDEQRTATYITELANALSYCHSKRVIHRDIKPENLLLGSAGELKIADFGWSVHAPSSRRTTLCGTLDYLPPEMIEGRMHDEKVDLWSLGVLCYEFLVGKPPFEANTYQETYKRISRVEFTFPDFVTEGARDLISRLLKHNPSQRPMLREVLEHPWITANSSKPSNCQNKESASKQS

[9] = biological target: Mitogen-activated protein kinase 9 (Homo sapiens, UniProt P45984);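 note: value from a kinome panel profiling assay, MAPK9 panel entry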
[10] = biological target: LIM domain kinase 1 (Homo sapiens, UniProt P53667); experiment: Navigating the Kinome. Panel member name: LIMK1
[11] = biological target: T3, Serine/threonine-protein kinase Chk1 (Homo sapiens, UniProt O14757);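 note: measured as one member of a kinome-wide kinase profiling panel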
T3 sequence (O14757 whole entry): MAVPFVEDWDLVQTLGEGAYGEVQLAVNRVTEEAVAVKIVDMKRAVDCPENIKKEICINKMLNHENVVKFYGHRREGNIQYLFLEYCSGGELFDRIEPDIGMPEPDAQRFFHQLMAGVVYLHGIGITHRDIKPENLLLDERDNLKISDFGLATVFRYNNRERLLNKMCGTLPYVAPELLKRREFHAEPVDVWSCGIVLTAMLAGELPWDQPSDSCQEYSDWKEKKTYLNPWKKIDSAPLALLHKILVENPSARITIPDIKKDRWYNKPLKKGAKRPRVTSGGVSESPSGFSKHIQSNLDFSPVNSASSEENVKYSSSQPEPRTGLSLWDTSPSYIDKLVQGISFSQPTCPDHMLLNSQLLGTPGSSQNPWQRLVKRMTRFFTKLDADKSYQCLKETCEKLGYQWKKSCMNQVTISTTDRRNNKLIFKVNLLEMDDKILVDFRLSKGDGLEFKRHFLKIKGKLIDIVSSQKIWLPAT

[12] = biological target: Dual specificity tyrosine-phosphorylation-regulated kinase 1B (Homo sapiens, UniProt Q9Y463); experiment: Navigating the Kinome. Panel member name: DYRK1B
[13] = biological target: Focal adhesion kinase 1 (Homo sapiens, UniProt Q05397);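 note: measured as one member of a kinome panel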
[14] = biological target: Platelet-derived growth factor receptor alpha (Homo sapiens, UniProt P16234); experiment: Navigating the Kinome. Panel member name: PDGFRA
[15] = biological target: Aurora kinase B (Homo sapiens, UniProt Q96GD4)
[16] = biological target: Rho-associated protein kinase 1 (Homo sapiens, UniProt Q13464);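 note: measured within a broad kinome-wide panel profiling many kinases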
[17] = biological target: Dual specificity protein kinase CLK4 (Homo sapiens, UniProt Q9HAZ1)
[18] = biological target: Macrophage-stimulating protein receptor (Homo sapiens, UniProt Q04912); experiment: Navigating the Kinome. Panel member name: MST1R
[19] = biological target: Dual specificity mitogen-activated protein kinase kinase 2 (Homo sapiens, UniProt P36507); experiment: Navigating the Kinome. Panel member name: MAP2K2
[20] = biological target: Calcium/calmodulin-dependent protein kinase type II subunit alpha (Homo sapiens, UniProt Q9UQM7); experiment: Navigating the Kinome. Panel member name: CAMK2A
[21] = biological target: Leukocyte tyrosine kinase receptor (Homo sapiens, UniProt P29376); experiment: Navigating the Kinome. Panel member name: LTK
Sequence of Leukocyte tyrosine kinase receptor (P29376 whole entry): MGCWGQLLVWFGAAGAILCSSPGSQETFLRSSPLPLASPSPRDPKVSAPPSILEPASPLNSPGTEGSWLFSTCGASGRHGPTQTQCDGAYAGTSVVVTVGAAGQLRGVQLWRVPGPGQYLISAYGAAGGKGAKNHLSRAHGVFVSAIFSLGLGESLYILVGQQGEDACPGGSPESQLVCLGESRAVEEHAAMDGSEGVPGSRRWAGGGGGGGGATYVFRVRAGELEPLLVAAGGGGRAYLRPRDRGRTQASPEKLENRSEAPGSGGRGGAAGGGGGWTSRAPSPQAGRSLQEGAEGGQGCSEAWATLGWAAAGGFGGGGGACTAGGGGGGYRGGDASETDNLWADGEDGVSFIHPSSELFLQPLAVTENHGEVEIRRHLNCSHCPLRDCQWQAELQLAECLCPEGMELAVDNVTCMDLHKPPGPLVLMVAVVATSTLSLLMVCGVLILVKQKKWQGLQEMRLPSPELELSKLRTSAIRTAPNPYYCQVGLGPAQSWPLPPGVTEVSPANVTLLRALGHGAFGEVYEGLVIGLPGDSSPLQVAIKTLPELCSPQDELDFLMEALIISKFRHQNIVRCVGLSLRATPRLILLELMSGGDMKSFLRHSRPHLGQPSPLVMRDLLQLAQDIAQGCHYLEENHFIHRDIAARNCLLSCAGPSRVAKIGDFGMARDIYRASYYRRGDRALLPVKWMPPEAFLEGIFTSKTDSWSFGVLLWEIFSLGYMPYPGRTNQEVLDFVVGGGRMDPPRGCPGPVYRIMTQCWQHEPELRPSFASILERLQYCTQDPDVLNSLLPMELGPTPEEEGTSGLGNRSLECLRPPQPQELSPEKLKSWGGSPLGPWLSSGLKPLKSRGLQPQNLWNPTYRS

Sequence of LIM domain kinase 1 (P53667 whole entry, the tested form may be a part): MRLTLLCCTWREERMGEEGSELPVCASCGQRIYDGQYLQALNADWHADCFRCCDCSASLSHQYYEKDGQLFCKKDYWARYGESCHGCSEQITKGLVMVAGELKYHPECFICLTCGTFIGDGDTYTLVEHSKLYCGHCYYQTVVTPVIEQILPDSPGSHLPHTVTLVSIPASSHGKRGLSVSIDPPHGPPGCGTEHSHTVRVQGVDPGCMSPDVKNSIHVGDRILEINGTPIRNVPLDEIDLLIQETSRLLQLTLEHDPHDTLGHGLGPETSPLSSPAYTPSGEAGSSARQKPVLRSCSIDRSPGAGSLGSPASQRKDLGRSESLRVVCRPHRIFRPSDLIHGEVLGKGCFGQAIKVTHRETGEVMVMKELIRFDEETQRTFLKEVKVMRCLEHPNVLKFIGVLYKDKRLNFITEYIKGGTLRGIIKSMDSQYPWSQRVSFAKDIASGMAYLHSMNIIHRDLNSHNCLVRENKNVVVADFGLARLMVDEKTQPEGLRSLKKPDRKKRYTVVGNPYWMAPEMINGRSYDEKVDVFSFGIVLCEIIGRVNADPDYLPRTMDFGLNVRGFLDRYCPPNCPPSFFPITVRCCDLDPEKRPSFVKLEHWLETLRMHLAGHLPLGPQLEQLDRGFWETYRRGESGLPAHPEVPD
Sequence of Death-associated protein kinase 3 (O43293 whole entry): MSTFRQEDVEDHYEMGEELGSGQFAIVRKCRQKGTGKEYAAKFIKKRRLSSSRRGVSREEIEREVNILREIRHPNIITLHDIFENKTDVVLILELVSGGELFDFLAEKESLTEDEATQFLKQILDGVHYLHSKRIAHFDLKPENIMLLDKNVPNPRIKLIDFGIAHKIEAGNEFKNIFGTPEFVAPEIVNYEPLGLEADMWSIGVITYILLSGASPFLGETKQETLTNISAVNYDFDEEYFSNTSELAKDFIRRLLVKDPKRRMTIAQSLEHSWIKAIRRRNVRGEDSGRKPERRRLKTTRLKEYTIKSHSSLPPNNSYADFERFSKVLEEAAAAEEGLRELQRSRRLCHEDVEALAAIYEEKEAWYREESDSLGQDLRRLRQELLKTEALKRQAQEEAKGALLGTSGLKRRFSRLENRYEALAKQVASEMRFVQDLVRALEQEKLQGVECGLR
Sequence of Aurora kinase B (Q96GD4 whole entry): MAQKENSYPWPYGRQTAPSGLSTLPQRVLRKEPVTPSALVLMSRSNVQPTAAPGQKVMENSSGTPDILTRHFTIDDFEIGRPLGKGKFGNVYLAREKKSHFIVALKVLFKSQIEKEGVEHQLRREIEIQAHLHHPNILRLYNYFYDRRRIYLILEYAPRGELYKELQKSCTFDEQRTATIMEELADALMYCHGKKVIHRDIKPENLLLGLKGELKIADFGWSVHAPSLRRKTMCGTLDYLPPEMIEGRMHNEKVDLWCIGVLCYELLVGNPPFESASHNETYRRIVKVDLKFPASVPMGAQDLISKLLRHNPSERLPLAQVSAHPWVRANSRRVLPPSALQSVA
Sequence of Dual specificity mitogen-activated protein kinase kinase 2 (P36507 whole entry): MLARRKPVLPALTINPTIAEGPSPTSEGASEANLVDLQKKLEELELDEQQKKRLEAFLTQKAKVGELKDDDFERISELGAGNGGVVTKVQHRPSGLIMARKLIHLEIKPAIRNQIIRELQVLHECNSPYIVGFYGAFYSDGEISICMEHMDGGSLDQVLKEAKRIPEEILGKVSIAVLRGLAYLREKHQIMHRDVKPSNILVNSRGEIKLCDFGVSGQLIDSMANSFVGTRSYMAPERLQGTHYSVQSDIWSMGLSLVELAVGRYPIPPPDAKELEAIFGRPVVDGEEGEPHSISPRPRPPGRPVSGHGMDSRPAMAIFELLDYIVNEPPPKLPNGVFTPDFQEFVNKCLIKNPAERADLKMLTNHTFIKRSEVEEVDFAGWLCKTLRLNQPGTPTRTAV
Sequence of Ribosomal protein S6 kinase alpha-3 (P51812 whole entry): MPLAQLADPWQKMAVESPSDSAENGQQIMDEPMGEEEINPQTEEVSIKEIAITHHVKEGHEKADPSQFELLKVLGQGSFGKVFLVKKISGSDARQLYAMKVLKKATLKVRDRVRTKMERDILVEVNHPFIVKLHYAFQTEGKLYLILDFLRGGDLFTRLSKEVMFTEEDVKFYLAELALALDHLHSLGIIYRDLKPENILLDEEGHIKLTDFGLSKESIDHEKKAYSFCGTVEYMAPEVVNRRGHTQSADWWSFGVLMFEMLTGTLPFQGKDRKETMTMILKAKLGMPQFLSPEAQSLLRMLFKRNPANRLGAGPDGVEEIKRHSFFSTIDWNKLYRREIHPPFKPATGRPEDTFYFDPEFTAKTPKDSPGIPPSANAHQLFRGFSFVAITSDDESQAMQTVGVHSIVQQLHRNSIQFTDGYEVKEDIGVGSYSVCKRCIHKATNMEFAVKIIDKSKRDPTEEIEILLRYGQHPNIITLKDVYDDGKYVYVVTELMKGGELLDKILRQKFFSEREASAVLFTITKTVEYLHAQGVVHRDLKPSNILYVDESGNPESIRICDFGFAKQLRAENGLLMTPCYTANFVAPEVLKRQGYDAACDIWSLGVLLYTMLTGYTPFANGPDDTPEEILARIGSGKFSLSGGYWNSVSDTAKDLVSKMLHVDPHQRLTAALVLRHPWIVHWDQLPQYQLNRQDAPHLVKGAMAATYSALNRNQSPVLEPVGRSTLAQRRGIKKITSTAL
Sequence of Dual specificity protein kinase CLK4 (Q9HAZ1 whole entry): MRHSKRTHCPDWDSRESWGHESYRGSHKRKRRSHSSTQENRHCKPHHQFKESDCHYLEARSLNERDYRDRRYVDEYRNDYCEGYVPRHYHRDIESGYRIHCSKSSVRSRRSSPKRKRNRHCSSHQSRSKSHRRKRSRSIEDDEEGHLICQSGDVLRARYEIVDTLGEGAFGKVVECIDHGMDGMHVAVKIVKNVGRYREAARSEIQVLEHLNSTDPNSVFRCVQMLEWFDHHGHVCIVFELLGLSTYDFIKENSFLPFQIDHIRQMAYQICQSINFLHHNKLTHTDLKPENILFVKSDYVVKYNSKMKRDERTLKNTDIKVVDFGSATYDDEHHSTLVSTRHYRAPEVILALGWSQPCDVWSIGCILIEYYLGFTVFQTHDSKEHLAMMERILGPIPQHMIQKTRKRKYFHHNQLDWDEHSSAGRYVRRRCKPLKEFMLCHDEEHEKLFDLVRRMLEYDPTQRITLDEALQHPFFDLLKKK
Sequence of Focal adhesion kinase 1 (Q05397 whole entry): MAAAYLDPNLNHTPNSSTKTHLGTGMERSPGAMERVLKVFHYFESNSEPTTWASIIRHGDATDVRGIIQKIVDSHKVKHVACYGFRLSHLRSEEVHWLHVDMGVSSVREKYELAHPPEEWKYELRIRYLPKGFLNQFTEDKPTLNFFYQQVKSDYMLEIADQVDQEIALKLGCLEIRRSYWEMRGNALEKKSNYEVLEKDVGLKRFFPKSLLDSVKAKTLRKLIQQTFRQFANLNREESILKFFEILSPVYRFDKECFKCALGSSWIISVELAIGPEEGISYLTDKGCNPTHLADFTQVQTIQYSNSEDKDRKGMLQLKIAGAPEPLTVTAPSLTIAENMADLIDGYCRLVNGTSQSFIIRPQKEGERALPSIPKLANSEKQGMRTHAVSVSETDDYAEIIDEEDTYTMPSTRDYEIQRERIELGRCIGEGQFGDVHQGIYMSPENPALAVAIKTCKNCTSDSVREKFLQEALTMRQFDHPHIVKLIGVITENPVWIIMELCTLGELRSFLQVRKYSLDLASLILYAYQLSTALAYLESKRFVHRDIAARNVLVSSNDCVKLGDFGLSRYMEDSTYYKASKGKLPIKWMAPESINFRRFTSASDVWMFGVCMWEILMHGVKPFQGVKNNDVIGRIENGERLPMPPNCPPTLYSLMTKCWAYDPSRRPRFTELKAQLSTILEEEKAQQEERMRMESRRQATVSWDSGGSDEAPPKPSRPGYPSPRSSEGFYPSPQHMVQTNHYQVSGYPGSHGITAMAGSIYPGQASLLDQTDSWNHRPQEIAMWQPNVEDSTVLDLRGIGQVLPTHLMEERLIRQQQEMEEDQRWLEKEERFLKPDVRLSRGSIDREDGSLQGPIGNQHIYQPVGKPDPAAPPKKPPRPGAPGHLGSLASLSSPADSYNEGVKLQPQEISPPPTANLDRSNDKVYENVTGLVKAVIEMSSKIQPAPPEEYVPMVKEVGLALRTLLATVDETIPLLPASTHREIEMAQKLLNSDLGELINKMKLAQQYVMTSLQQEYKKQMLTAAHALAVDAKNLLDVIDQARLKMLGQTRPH

Ki [1] | Ki [2] | Ki [3] | Ki [4] | Ki [6] | Ki [7] | Ki [8] | Ki [9] | Ki [10] | Ki [11] | Ki [12] | Ki [13] | Ki [14] | Ki [15] | Ki [16] | Ki [17] | Ki [18] | Ki [19] | Ki [20] | Compound | Ki [5] | also measured
3.16 µM (active) | > 3.16 µM (inactive) | 3.16 µM (active) | 0.316 µM (active) | > 5.01 µM (inactive) | 1.26 µM (active) | 1 µM (active) | > 3.98 µM (inactive) | 0.316 µM (active) | 0.316 µM (active) | 1 µM (active) | 3.16 µM (active) | 2 µM (active) | 3.16 µM (active) | > 3.98 µM (inactive) | 0.398 µM (active) | 3.98 µM (active) | 3.16 µM (active) | 3.16 µM (active) | Cc1ccc(C)c(NC(=O)c2cc(-c3ccco3)nc3ccccc23)c1 | 5.01 µM (active) | Ki [21]: 1 µM (active)
1.58 µM (active) | > 3.16 µM (inactive) | 0.501 µM (active) | 1 µM (active) | > 5.01 µM (inactive) | > 6.31 µM (inactive) | > 1.58 µM (inactive) | 3.16 µM (active) | 0.0316 µM (active) | 0.0316 µM (active) | 0.316 µM (active) | 0.794 µM (active) | 0.2 µM (active) | > 3.98 µM (inactive) | 0.501 µM (active) | 0.0631 µM (active) | 0.501 µM (active) | > 3.98 µM (inactive) | > 3.98 µM (inactive) | COc1ccc(C2=NNc3cccc4c(OC)ccc2c34)cc1OC | 0.794 µM (active) | Ki [21]: 0.0251 µM (active)

Compound | Ki [1] | Ki [2] | Ki [3] | Ki [4] | Ki [6] | Ki [7] | Ki [8] | Ki [9] | Ki [10] | Ki [11] | Ki [12] | Ki [13] | Ki [14] | Ki [15] | Ki [16] | Ki [17] | Ki [18] | Ki [19] | Ki [20] | Ki [5] | also measured
CN1CCC(c2c(O)cc(O)c3c(=O)cc(-c4ccccc4Cl)oc23)C(O)C1 (stereo not drawn) | 1.26 µM (active) | > 3.16 µM (inactive) | > 2 µM (inactive) | > 2.51 µM (inactive) | > 3.98 µM (inactive) | 0.794 µM (active) | > 1.58 µM (inactive) | > 3.98 µM (inactive) | > 3.16 µM (inactive) | > 6.31 µM (inactive) | 0.126 µM (active) | > 3.98 µM (inactive) | > 2.51 µM (inactive) | > 5.01 µM (inactive) | > 6.31 µM (inactive) | 1.26 µM (active) | > 3.98 µM (inactive) | > 3.98 µM (inactive) | > 3.98 µM (inactive) | > 3.16 µM (inactive) | Ki [21]: 0.631 µM (active)

From ChEMBL document CHEMBL1201862, “PubChem BioAssay data set” (2004)
